Data reported in publication PMC12196476, “New Nitrogen-, Oxygen-, and Sulfur-Containing Heterocyclic Compounds as Anti-Colon Cancer Agents: Synthesis, Multitargeted Evaluations, Molecular Docking Simulations and ADMET Predictions” (Pharmaceuticals, 2025).

How the values were obtained:
[1] = system: LoVo colon carcinoma cells; test: Cell viability, LDH release assay, LoVo; details: Homo sapiens, LoVo, 48 h; for viability at 100 µg/mL: read-out: Mean % of viable cells ± SD, LoVo, 100 µg/mL, 48 h, LDH release assay; for IC50: read-out: Mean IC50 Values in µM ± SD, LoVo cells
Description: (§1) The studied compounds were also screened for their cytotoxic effects on HCT-116 and LoVo colon carcinoma cells, as well as normal HUVECs, using the standard LDH assay at a concentration of 100 µg/mL.
(§2) The antiproliferative activities of the newly synthesized compounds 3a–e, 8, 9a–c, 13, 14, 17, 18a–h, 20, 22, 23 and 25 were examined on human colon HCT-116 and LoVo cell lines as well as HUVEC (American Type Culture Collection, Manassas, VA, USA). […]
(§3) S3.2.4. Cell culture and viability assay.
(§4) The cytotoxic activities of the newly synthesized compounds (3a-e, 8, 9a-c, 13, 14, 17, 18a-h, 20, 22,
(§5) 23, and 25) were examined on human colon cancer cell lines HCT-116 and Lovo (American Type
(§6) Culture Collection, USA). Various concentrations (50, 100, 200, and 400 μg/mL) of test compounds
(§7) were prepared in Dulbecco’s Modified Eagles Medium (PAN-Biotech, Barcelona, Spain),

[2] = Cell viability, LDH release assay, normal HUVECs; details: human, normal HUVECs, Mean % of viable cells ± SD, HUVEC
Description: as §1, §2
medium served used as negative and positive controls, respectively. Percentages of viable cells […]
were calculated based on relative optical density (OD) values (at 550 nm) for compound-treated […]
wells (final concentration of 100 μg/mL), compared to the negative control, and expressed as mean value (%) ± SD from two replicates. Graphing dose-response curves representing the compound […]
concentration versus the percentages of viable cells was also conducted to deduce the half - […]
Additionally, the safety profiles of the studied compounds were assessed against normal cells […]
(HUVECs) at final concentration of 100 μg/mL . HUVECs were grown in Dulbecco’s Modified Eagle’s Medium supplemented with 10% FBS, 2 mM glutamine (Sigma Aldrich), 100 units/mL penicillin and […] streptomycin (Life Technologies; Paisley, UK). […]

PDK-1 = PDK-1 (Homo sapiens, UniProt Q15118); test: In vitro PDK-1 inhibition assay (Kinase-Glo luminescent kinase kit); type: biochemical; details: for inhibition at 100 µg/mL: three replicates, read-out: Mean Inhibition Percent ± SD, PDK-1
Description: Principally, the PDK-1 inhibitory activities were evaluated using the non-radioactive Kinase-Glo™ Luminescent Kinase Kit (Promega Corporation, Madison, WI, USA) following the instructions of the manufacturer.
S3.2.2. In vitro PDK-1 inhibition assay.
The PDK-1 inhibitory activities of the test compounds were evaluated using the non-radioactive
Kinase-Glo™ Luminescent Kinase kit (Promega Corporation, Madison, WI, USA), following the
manufacturer’s protocol. Briefly, 5 μL of assay buffer—containing 10 × 250 mM Tris-HCl, 50 mM
MgCl2, 5 mM ethyleneglycol-bis(β-aminoethylether)-N,N,N′,N′-tetraacetic acid (EGTA), 10 mM
ethylenedi- aminetetraacetic acid (EDTA), and 10 mM dithiothreitol (DTT)—was added to each
well of a 96-well plate, along with 25 μL of distilled water. Subsequently, 5 μL of each test
compound at various concentrations (50, 100, 200 and 300 μg/mL in 1% DMSO) was added to the
respective wells, except for the two control wells, which received 5 μL of either PBS buffer or 1%
DMSO. Then, 5 μL of pyruvate dehydrogenase E1 (PDH E1) protein (10 μM) and 5 μL of ATP
(10 μM) were added to each well. To initiate phosphorylation, 5 μL of PDK-1 (20 μM) in protein
buffer (1 mM MgCl2, 2000 mM KCl, 40 mM K3PO4) was added to all the wells except the control
wells, which received 5 μL of protein buffer instead. The plate was then mixed thoroughly and
incubated at 37 °C for 30 minutes. After incubation, 50 μL of kinase-Glo® reagent was added to each
well, followed by a 10-minute incubation at room temperature with gentle shaking to stabilize the
luminescent signal. Luminescence was then measured using a microplate reader.
The IC50 value—defined as the concentration of a compound required to reduce luminescence by
50%, compared to untreated control wells—was determined for each compound from the
corresponding dose–response curve generated by plotting PDK-1 inhibition (%) versus compound
concentration. Sodium dichloroacetate (SDA, 1000 μM) was used as a reference PDK-1inhibitor. […]

[3] = target: recombinant human LDHA protein (Homo sapiens, UniProt P00338); test: In vitro LDHA inhibitory assay (NADH consumption); type: biochemical; details: for inhibition at 100 µg/mL: three replicates, read-out: Mean Inhibition Percent ± SD, LDHA
Text: The LDHA inhibitory efficiencies were investigated on Spectramax M2 spectrofluorometer via measuring the amounts of the consumed NADH^40 using an NAD^+/NADH quantification kit. […]
S3.2.3. In vitro LDHA inhibitory assay.
The LDHA inhibitory activity of the test compounds was investigated using Spectramax M2
spectrofluorometer by measuring the amounts of the consumed NADH [42] employing
NAD+/NADH quantification kit. Briefly, the assay medium containing various concentrations of
each test compound (50, 100, 200 and 300 μg/mL) was incubated in assay medium composed of 20
mM of HEPES-K+ buffer (pH 7.2), 20 μM of NADH, 2 mM of pyruvate and 10 ng of purified
recombinant human LDHA protein for 10 min utes. The activity of LDHA would result in reduction
of pyruvate into lactate with concomitant oxidation of NADH to NAD +. Since NADH (reduced
LDHA, could be inversely quantified by monitoring the change in the intensity of the fluorescence
at 340 nm over a 10-minute period. The rate of the fluorescence change (slope) in treated samples
was compared to that obtained from negative control experiment (100 % enzymatic activity) to
determine the percentage of inhibition. The IC50 value—defined as the compound concentration
required to reduce the luminescence by 50%, compared to untreated control wells—was
determined for each compound from the corresponding dose–response curve generated by
plotting LDHA inhibition (%) against compound concentration.
was used as the reference LDHA inhibitor. […]

[4] = system: HCT-116 colon carcinoma cells; test: Cell viability, LDH release assay, HCT-116; details: Homo sapiens, HCT-116, 48 h; for viability at 100 µg/mL: read-out: Mean % of viable cells ± SD, HCT-116, 100 µg/mL, 48 h, LDH release assay; for IC50: read-out: Mean IC50 Values in µM ± SD, HCT-116 cells
Description: as §1, §2, §3, §4, §5, §6, §7

[5] = DPPH radical scavenging assay; details: three independent experiments; read-out: Mean IC50 (mM) for initial DPPH radicals ± SD
Description: The antioxidant activities of the studied compounds were assessed using the 1,1-diphenyl-2-picrylhydrazyl (DPPH) radical scavenging method as detailed by Bersuder et al.. The results were expressed as IC50 (mM)—the concentration of the test compound required to neutralize 50% of DPPH radicals.
The antioxidant efficiencies of target compounds were determined using the 1,1-diphenyl-2-picrylhydrazyl (DPPH) radical scavenging method as detailed by Bersuder et al.. […]
S3.2. Evaluation of Biological Activities.
S3.2.1. In vitro DPPH radical scavenging assay.
The antioxidant efficiencies of compounds—3a−e, 8, 9a−c, 13, 14, 17, 18a−h, 20, 22, 23, and 25—were
determined using the 1,1-diphenyl-2-picrylhydrazyl (DPPH) radical scavenging method as
detailed by Bersuder et al.. Fundamentally, the purple color of the stabilized DPPH radical
fades in the presence of an antioxidant, thus, the change of absorbance can be followed
spectrophotometrically at 519 nm. In the assay, equal volumes (0.5 mL) of DPPH ethanolic solution
and each compound (0-2 mg/mL in DMSO) or butylated hydroxytoluene (BHT) as the reference
were mixed well by shaking. The negative control consisted of the same amount of DMSO and
DPPH solution. After, incubation all mixtures at room temperature in the dark for one hour, the
absorbance of the residual DPPH radicals was measured at 519 nm using the UV‐vis
spectrophotometer. The DPPH radical scavenging activity of each compound (%) was calculated
Scavenging activity = (1 − Acompound/AControl) * 100, where Acompound and Acontrol the absorbance values
of each tested compound (or BHT) and the negative control, respectively. The half maximal
inhibitory concentration (IC50) for each compound in mg/mL was deduced by graphing the dose-
response curve relating the scavenging activity (%) to the compound concentration. Data points
represent the mean ± standard deviation (SD) of three independent determinations.

Sequence of PDK-1 (Q15118 29-436): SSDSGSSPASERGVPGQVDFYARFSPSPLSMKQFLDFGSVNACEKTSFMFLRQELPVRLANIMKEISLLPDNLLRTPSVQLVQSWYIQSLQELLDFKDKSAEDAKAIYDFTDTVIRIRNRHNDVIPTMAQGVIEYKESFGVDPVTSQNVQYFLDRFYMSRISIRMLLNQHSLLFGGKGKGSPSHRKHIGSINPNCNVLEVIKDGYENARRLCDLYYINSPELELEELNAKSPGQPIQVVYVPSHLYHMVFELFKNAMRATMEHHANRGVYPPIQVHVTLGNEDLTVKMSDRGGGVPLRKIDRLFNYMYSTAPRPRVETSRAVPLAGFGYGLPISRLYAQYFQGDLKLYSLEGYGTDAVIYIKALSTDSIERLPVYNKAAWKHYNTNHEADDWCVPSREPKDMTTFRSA

inhibition at 100 µg/mL (PDK-1) [%] | inhibition at 100 µg/mL [3] [%] | IC50 [5] [mM] | IC50 [1] [µM] | IC50 (PDK-1; three independent experiments, read-out: Mean IC50 µM ± SD, PDK-1) [µM] | IC50 ([3]; three independent experiments, read-out: Mean IC50 µM ± SD, LDHA) [µM] | IC50 [4] [µM] | Compound | viability at 100 µg/mL [1] [%] | viability at 48 h, 100 µg/mL [2] [%] | viability at 100 µg/mL [4] [%]
25.1 ± 3.04 | 25.8 ± 2.48 | 0.214 ± 0.027 | – | – | – | – | CCOC(=O)c1c(/N=C/c2cc(Br)c(O)c(OC)c2)sc2c1CCC(c1ccccc1)C2 (stereo not drawn) [Compound 3a, (E)-Ethyl2-((3-bromo-4-hydroxy-5-methoxybenzylidene)amino)-6-phenyl-4,5,6,7-tetrahydrobenzo[b]thiophene-3-carboxylate] | 57.7 ± 1.53 | 85 ± 1.73 | 60.7 ± 3.06
30.1 ± 1.56 | 33.4 ± 1.98 | 1.81 ± 0.115 | – | – | – | – | CCOC(=O)c1sc(/N=C/c2cc(OC)c(OC)c(OC)c2)nc1C [Compound 9b, Ethyl(E)-4-methyl-2-((3,4,5-trimethoxybenzylidene)amino)thiazole-5-carboxylate] | 60.3 ± 2.83 | 81.7 ± 2.52 | 54 ± 4.58
31.2 ± 3.18 | 28.3 ± 1.84 | 0.89 ± 0.039 | – | – | – | – | Oc1ccc2ccccc2c1/C=N/c1ncnc2sc3c(c12)CCCC3 [Compound 3e, (E)-1-(((5,6,7,8-Tetrahydrobenzo[4,5]thieno[2,3-d]pyrimidin-4-yl)imino)methyl) naphthalene-2-ol] | 62.3 ± 2.52 | 96.7 ± 1.16 | 57 ± 1.73
94.7 ± 2.33 | 82.8 ± 3.18 | 0.522 ± 0.025 | 190 | 147 ± 5.95 | 167 ± 10.1 | 170 | COc1cc(OC)c(/C=N/c2sc3c(c2C#N)CCCC3)c(OC)c1 [Compound 3b, (E)-2-((2,4,6-Trimethoxybenzylidene)amino)-4,5,6,7-tetrahydrobenzo[b]thiophene-3-carbonitrile] | < 29 | ~90 | < 29
37 ± 3.61 | 18.9 ± 1.77 | 0.379 ± 0.004 | 479 ± 19.2 | – | – | 498 ± 12.6 | Cc1nc2ccc(F)cc2c(=O)n1/N=C/c1cccs1 [Compound 18h, (E)-6-Fluoro-2-methyl-3-((thiophen-2-ylmethylene)amino)quinazolin-4(3H)-one] | 33 ± 4.24 | 78 ± 2 | 37 ± 2
7.6 ± 0.85 | 40 ± 1.41 | 0.476 ± 0.038 | – | – | – | – | COc1cc(/C=N/c2ncnc3sc4c(c23)CCCC4)cc(Br)c1O [Compound 3c, (E)-2-Bromo-6-methoxy-4-(((5,6,7,8-tetrahydrobenzo[4,5]thieno[2,3-d]pyrimidin-4-yl)imino)methyl)phenol] | 95.7 ± 1.53 | 93 ± 2.65 | 89.3 ± 4.16
66 ± 1.73 | 22.2 ± 1.13 | 0.238 ± 0.006 | – | – | – | – | COc1ccc(/C=N/n2c(C)nc3ccc(F)cc3c2=O)cc1O [Compound 18g, (E)-6-Fluoro-3-((3-hydroxy-4-methoxybenzylidene)amino)-2-methylquinazolin-4(3H)-one] | 74.7 ± 2.52 | 88 ± 2.65 | 58.7 ± 3.06
52 ± 3.61 | 14.4 ± 1.41 | 0.288 ± 0.029 | – | – | – | – | Cc1nc2ccc(F)cc2c(=O)n1/N=C/c1c(O)ccc2ccccc12 [Compound 18f, (E)-6-Fluoro-3-(((2-hydroxynaphthalen-1-yl)methylene)amino)-2-methylquinazolin-4(3H)-one] | 73 ± 3.46 | 83 ± 1.73 | 83 ± 3
48.8 ± 1.77 | 67.3 ± 3.32 | 0.881 ± 0.041 | – | – | – | – | CCOC(=O)c1sc(/N=C/c2c(O)ccc3ccccc23)nc1C [Compound 9c, Ethyl(E)-2-(((2-hydroxynaphthalen-1-yl)methylene)amino)-4-methylthiazole-5-carboxylate] | 60.3 ± 2.12 | 80.7 ± 3.22 | 64.3 ± 3.06

Compound | inhibition at 100 µg/mL (PDK-1) [%] | inhibition at 100 µg/mL [3] [%] | IC50 [5] [mM] | IC50 [1] [µM] | IC50 (PDK-1; three independent experiments, read-out: Mean IC50 µM ± SD, PDK-1) [µM] | IC50 ([3]; three independent experiments, read-out: Mean IC50 µM ± SD, LDHA) [µM] | IC50 [4] [µM] | viability at 100 µg/mL [1] [%] | viability at 48 h, 100 µg/mL [2] [%] | viability at 100 µg/mL [4] [%]
CCOC(=O)c1sc(NC(=O)/C(=C/c2ccc(OC(C)=O)c(OC)c2)NC(=O)c2ccccc2)nc1C [Compound 20, Ethyl (Z)-2-(3-(4-Acetoxy-3-methoxyphenyl)-2-benzamido-acrylamido)-4-methylthiazole-5-carboxylate] | 28.2 ± 1.06 | 16.9 ± 1.27 | 0.745 ± 0.027 | – | – | – | – | 51 ± 2.83 | 73 ± 2.75 | 49 ± 2.83
